Reference: patent US10940188B2, “Compounds and methods for treatment and prevention of Flavivirus infection” (priority 2016, dated 2021)
Several values for one entry are separate records, joined by “and”; a condition that tells them apart may be missing. Identical values can stand only once. Like-named read-outs stand apart in the source and are kept apart here.

Key:
[1] = tested on: ZIKV-induced caspase 3/7 activity in hNPCs; experiment: Caspase 3/7 activity assay, ZIKV-infected hNPCs; assay type: cell-based; settings: for IC50: read-out: Caspase 3 (IC50, uM) NPCs; for Emax: read-out: Caspase 3 (efficacy, %) NPCs
Procedure, shortened: (§1)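 Human NPCs, SNB-19 cells or astrocytes seeded 16 h, compound added 30 min before ZIKV, then 6 h infection at 37 °C. Caspase-Glo 3/7 luminescence after 30 min at room temperature, normalized to uninfected cells (0%) and ZIKV-infected cells (100%).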

[2] = tested on: ZIKV-induced caspase 3/7 activity in SNB-19 cells; experiment: Caspase 3/7 activity assay, ZIKV-infected SNB-19 cells; assay type: cell-based
Procedure, shortened: as §1

[3] = Homo sapiens, ZIKV-infected hNPCs
[4] = Homo sapiens, ZIKV-infected SNB-19 cells, read-out: Caspase 3 (IC50, uM) SNB-19
[5] = Homo sapiens, ZIKV-infected SNB-19 cells, read-out: Caspase 3 (efficacy, %) SNB-19
[6] = ZIKV-infected SNB-19 cells, read-out: Caspase 3 (IC50, uM) SNB-19

| Compound | IC50 [1, 3] [µM] | Emax [1, 3] [%] | IC50 [2, 4] [µM] | Emax [2, 5] [%] | other results |
| --- | --- | --- | --- | --- | --- |
| Cc1cccc(C#Cc2ccccc2)n1 [MPEP, 2-Methyl-6-(phenylethynyl)pyridine] | 4.11 | 96.1 | 5.18 | 98.6 | – |
| CN(C)CCCSc1ccccc1NC(=O)/C=C/c1ccccc1 [Cinanserin] | 17.3 | 80.4 | 12.3 | 92 | – |
| O=C(c1ccccc1)c1ccc2n1CCC2C(=O)O (stereo not drawn) [Ketorolac tromethamine] | 10.3 | 75 | 17.3 | 84.5 | – |
| Vitamin B12 | – | – | – | – | Caspase 3 (efficacy, %) NPCs ([1]; ZIKV-infected hNPCs): 94.7% and 59.1%; IC50 ([1]; ZIKV-infected hNPCs): 6.9 µM and 11.3 µM; IC50 [2, 6]: 11.6 µM and 13.4 µM |
| C/C1=C2/[N-][C@H]([C@H](CC(N)=O)[C@@]2(C)CCC(=O)NC[C@@H](C)OP(=O)([O-])O[C@H]2[C@@H](O)[C@@H](n3cnc4cc(C)c(C)cc43)O[C@@H]2CO)[C@]2(C)N=C(/C(C)=C3N=C(/C=C4N=C1[C@@H](CCC(N)=O)C\4(C)C)[C@@H](CCC(N)=O)[C@]\3(C)CC(N)=O)[C@@H](CCC(N)=O)[C@]2(C)CC(N)=O.[Co+3].[OH-] [Hydroxocobalamin] | – | – | – | – | Caspase 3 (efficacy, %) NPCs ([1]; ZIKV-infected hNPCs): 67.4%; IC50 ([1]; ZIKV-infected hNPCs): 0.87 µM; Caspase 3 (efficacy, %) SNB-19 ([2]; ZIKV-infected SNB-19 cells): 85.7%; IC50 [2, 6]: 1.46 µM |
| CN1CC(=O)NC1=NC(=O)Nc1cccc(Cl)c1 [Fenobam] | – | – | – | – | Caspase 3 (efficacy, %) NPCs ([1]; ZIKV-infected hNPCs): 108%; IC50 ([1]; ZIKV-infected hNPCs): 5.48 µM; Caspase 3 (efficacy, %) SNB-19 ([2]; ZIKV-infected SNB-19 cells): 110%; IC50 [2, 6]: 7.31 µM |
| O=C(O)c1ccccc1Nc1cccc(C(F)(F)F)c1 [Flufenamic acid] | 17.3 | 68.1 | 10.9 | 61.5 | – |
| O=C(OCc1ccccc1)c1ccc(O)cc1 [Benzylparaben] | 15.5 | 56 | 19.5 | 91.8 | – |
| CC(C(=O)O)c1ccc(C(=O)c2cccs2)cc1 (stereo not drawn) [Suprofen] | 15.5 | 59.1 | 17.3 | 65.6 | – |
| C[C@H](NC(=O)C(=O)Nc1ccccc1C(C)(C)C)C(=O)N[C@@H](CC(=O)O)C(=O)COc1c(F)c(F)cc(F)c1F [Emricasan] | 0.37 | 85.3 | 0.62 | 97.6 | IC50 ([2]; Homo sapiens, SNB-19 cells, three ZIKV strains MR766, FSS13025, PRVABC59, read-out: IC50 in the caspase activity assay): 0.13 to 0.9 µM |
| Cc1cc(O)c2c(c1)C(=O)c1cc(O)cc(O)c1C2=O [Emodin] | 2.59 | 82.1 | 4.35 | 83.3 | – |
| O=C(O)CCC(=O)c1ccc(-c2ccccc2)cc1 [Fenbufen] | 19.5 | 72.5 | 24.5 | 76.3 | – |
| COc1cccc(-c2ccc(NC(=O)C3=C(C(=O)O)CCC3)c(F)c2)c1 [Vidofludimus] | 2.45 | 87.8 | 3.66 | 101 | – |
| COc1ccc(-c2cc(=S)ss2)cc1 [Anethole trithione] | 13 | 70.3 | 15.5 | 85.5 | – |
| Cc1cccc(/C=C/c2ccccc2)n1 [SIB 1893] | – | – | – | – | Caspase 3 (efficacy, %) NPCs ([1]; ZIKV-infected hNPCs): 95.2%; IC50 ([1]; ZIKV-infected hNPCs): 8.69 µM; Caspase 3 (efficacy, %) SNB-19 ([2]; ZIKV-infected SNB-19 cells): 105%; IC50 [2, 6]: 15.5 µM |
| O=C(Nc1ccc(C(=O)O)c(O)c1)c1ccccc1 [Benzoylpas] | 4.89 | 85.4 | 6.9 | 92.8 | – |
| CC(C(=O)O)c1ccc(C(=O)c2ccccc2)s1 (stereo not drawn) [Tiaprofenic acid] | 8.69 | 86.7 | 10.3 | 96.2 | – |
| c1ccc2[nH]c(-c3cscn3)nc2c1 [Thiabendazole] | 9.75 | 83.4 | 14.6 | 89.4 | – |

| Compound | IC50 [1, 3] [µM] | Emax [1, 3] [%] | IC50 [2, 4] [µM] | Emax [2, 5] [%] | other results |
| --- | --- | --- | --- | --- | --- |
| Cc1ccc(O)c(-n2nc3ccccc3n2)c1 [2-(2H-Benzotriazol-2-yl)-4-methylphenol] | 4.89 | 77.6 | 8.69 | 80.1 | – |
| CN1CCN(c2cc3c(nn2)Oc2ccccc2N3C)CC1 [Pipofezine] | 12 | 47.7 | 15.1 | 31.5 | – |
| CCC(C(=O)O)c1ccc(N2Cc3ccccc3C2=O)cc1 (stereo not drawn) [Indobufen] | 6.15 | 81.3 | 7.74 | 85.8 | – |
| c1ccc(CCNc2nc(-c3ccccc3)cs2)cc1 [Fanetizole] | 14.6 | 81.8 | 17.3 | 78.1 | – |
| Nc1nc2ccc([N+](=O)[O-])cc2s1 [2-Amino-6-nitrobenzothiazole] | 56.2 | 57.1 | 53.1 | 46.1 | – |
| O=C1NC(=O)/C(=C/c2ccc(-c3ccc(F)cc3O)o2)S1 [AS-252424] | – | – | – | – | Caspase 3 (efficacy, %) NPCs ([1]; ZIKV-infected hNPCs): 52.3%; IC50 ([1]; ZIKV-infected hNPCs): 1.64 µM; Caspase 3 (efficacy, %) SNB-19 ([2]; ZIKV-infected SNB-19 cells): 38.0%; IC50 [2, 6]: 2.18 µM |
| O=C(Oc1ccccc1)c1cccc(C(=O)Oc2ccccc2)c1 [Diphenyl isophthalate] | 4.47 | 89.4 | 4.73 | 92.8 | – |
| CC(=O)Oc1cccc2c1C(=O)c1c(OC(C)=O)cc(C(=O)O)cc1C2=O [Diacerein] | 15.5 | 56.5 | 17.3 | 63.2 | – |
| O=C1c2ccccc2C(=O)c2c1ccc(O)c2O [Alizarin] | 21.8 | 58.5 | 21.8 | 40.9 | – |
| Flurbiprofen axetil | – | – | – | – | Caspase 3 (efficacy, %) NPCs ([1]; ZIKV-infected hNPCs): 0.0%; Caspase 3 (efficacy, %) SNB-19 ([2]; ZIKV-infected SNB-19 cells): 45.7%; IC50 [2, 6]: 19.5 µM |
| O=S(=O)(O)c1ccc2[nH]c(-c3ccccc3)nc2c1 [Ensulizole] | – | – | – | – | IC50 ([1]; Homo sapiens): 1.38 µM; Emax ([1]; Homo sapiens): 80.6%; IC50 ([2]; Homo sapiens, SNB-19, read-out: Caspase 3 (IC50, uM) SNB-19): 1.84 µM; Emax ([2]; Homo sapiens, SNB-19, read-out: Caspase 3 (efficacy, %) SNB-19): 73.3% |
| O=C(Nc1ccc([N+](=O)[O-])cc1Cl)c1cc(Cl)ccc1O [Niclosamide] | 1.84 | 87.5 | 2.06 | 93.9 | – |
| O=C(O)c1ccccc1NCCc1ccccc1 [Enfenamic acid] | 21.8 | 47.1 | – | 49.5 | – |
| CCOCCOC(=O)C=Cc1ccc(OC)cc1 [2-Ethoxylethyl-p-methoxycinnamate] | 18.4 | 56 | 27.5 | 53 | – |
| O=C1NC(=O)C(=Cc2ccc(-c3ccc(F)cc3)o2)S1 [CAY10505] | – | – | – | – | Caspase 3 (efficacy, %) NPCs ([1]; ZIKV-infected hNPCs): 83.5%; IC50 ([1]; ZIKV-infected hNPCs): 10.9 µM; Caspase 3 (efficacy, %) SNB-19 ([2]; ZIKV-infected SNB-19 cells): 91.2%; IC50 [2, 6]: 17.3 µM |
| O=C(O)c1cc([N+](=O)[O-])ccc1NCCCc1ccccc1 [5-Nitro-2-(3-phenylpropylamino)benzoic acid] | 8.69 | 59.8 | 13 | 82.9 | – |
| CC(=O)Nc1ccc([C@H](C)C(=O)Nc2ncc(C(C)C)s2)cc1 [PHA-690509] | – | – | – | – | Caspase 3 (efficacy, %) NPCs ([1]; ZIKV-infected hNPCs): 73.0%; IC50 ([1]; ZIKV-infected hNPCs): 19.5 µM; Caspase 3 (efficacy, %) SNB-19 ([2]; ZIKV-infected SNB-19 cells): 74.6%; IC50 [2, 6]: 9.2 µM |
| N#CC1(c2ccc(NC(=O)c3cccnc3NCc3ccncc3)cc2)CCCC1 [Apatinib] | – | 0 | 24.5 | 61.2 | – |
